In patent US20240415859A1, “USE OF ISORHOIFOLIN AND DERIVATIVE THEREOF IN PROMOTING NERVE REPAIR” (priority 2021, published 2024):

Experiments:
[1] = tested on: injured brain sections; assay: Ex vivo 3D brain tissue slice culture, scalpel injury; type: cell-based; settings: E18 rat brain slices 350 μm, added every day, 96 hours, vs ddH2O
From the text: For the experiment, we took out the brain of E18 rat embryos and embedded in low-melting agarose. The brains were sectioned using Leica microtome VT100. The tissue sections were collected with 350 μm thick and injured using a scalpel. And placed them in inserts within a 6-well plate. This culturing method allows the brain slices to be exposed to both medium and air, facilitating a more realistic representation of the interactions between neuronal cells and other brain cells, as well as the three-dimensional structure, compared to in vitro culture. ddH2O or Isorhoifolin was added to injured brain sections every day. After 96 hours, immunostaining was performed. TUJ1 antibody was used to label neuron cells. GFAP antibody was used to label glial cells. DAPI was used to label nucleus. The experimental procedure for the Isorhoifolin derivative Narirutin is also depicted in FIG. 6. Took out the brain of E18 rat embryos and embedded in low-melting agarose. The brains were sectioned using Leica microtome VT100. The tissue sections were collected with 350 μm thick and injured using a scalpel. And placed them in inserts within a 6-well plate. […]

[2] = tested on: cortical neurons; assay: In vitro neural repair assay, injured cortical neurons (gap closure rate); type: cell-based; settings: E18 rat cortical neurons, injured DIV8, 10 nM and 100 nM, 72 hours, standardized against 0.1% DMSO
From the text: As depicted in FIG. 2, the degree of neuronal axon regeneration was quantified using the gap closure rate. White dashed lines indicate the borders of injury gap, the central black area represents the region scratched by the tip of a pipette tips. The newly regenerated neurites grow from the white dashed lines toward the center of the gap. To quantify the results, we measured the lengths of gap (Lg) and distance between regenerated neurites (Ln) every 50 μm. After unbiasedly drawing ten lines of equal distance, the average distance between neurites is taken: Length of gap between regenerated neurons (Ln). Gap closure rate is calculated using the formula: (Lg−Ln)/Lg. Scale bar=100 μm. Images were taken using Observer Z1 microscope. The experimental procedure is also as depicted in FIG. 1. Removed the brain of E18 rat embryos and dissected into cortex and hippocampus. Subsequently, the cortex and hippocampus were separated into cortical neurons and hippocampal neurons, respectively. Then, seeded cortical neurons on 48-well plates. The first day that neurons are cultured in vitro is defined as day in vitro 0 (DIV0). On DIV2, Cytosine beta-D-arabinoside (AraC) was added to neurons to inhibit the proliferation of glial cells. On DIV8, neurons were injured using pipette tips (p10 tips) and 10 nM and 100 nM Narirutin was added. […]

[3] = tested on: hippocampal neurons; assay: In vitro neural repair assay, injured hippocampal neurons (gap closure rate); type: cell-based; settings: E18 rat hippocampal neurons, 72 hours
Procedure: The experimental procedure is as depicted in FIG. 1. Removed the brain of E18 rat embryos and dissected into cortex and hippocampus. Subsequently, the cortex and hippocampus were separated into cortical neurons and hippocampal neurons, respectively. Then, seeded hippocampal neurons on 48-well plates. The first day that neurons are cultured in vitro is defined as day in vitro 0 (DIV0). On DIV2, Cytosine beta-D-arabinoside (AraC) was added to neurons to inhibit the proliferation of glial cells. On DIV8, neurons were injured using pipette tips (p10 tips) and various concentrations of Isorhoifolin was added. After 72 hours, immunostaining was performed. TUJ1 antibody was used to label neuronal cells to observe the regrowth of neurites. Images were taken using Observer Z1 microscope. As depicted in FIG. 2, the degree of neuronal axon regeneration was quantified using the gap closure rate. White dashed lines indicate the borders of injury gap, the central black area represents the region scratched by the tip of a pipette tips. The newly regenerated neurites grow from the white dashed lines toward the center of the gap. To quantify the results, we measured the lengths of gap (Lg) and distance between regenerated neurites (Ln) every 50 μm. […] Gap closure rate is calculated using the formula: (Lg−Ln)/Lg. […]

[4] = tested on: retinal explants; assay: Ex vivo retinal explant neuronal tissue repair; type: cell-based, C57BL/6 mice; settings: P8 mouse retinal explants, 9 μM or 90 μM, five days, vs ddH2O
Procedure: Retinal explants were obtained from C57BL/6 mice at postnatal day 8. Following the sacrifice of mice, the eyes were enucleated, and the eyeballs were dissected using forceps and microscissors to separate the retina and remove the vitreous. Subsequently, the dissected retinas were quartered and trimmed along the edges of the tissue using microscissors. Each quarter was cultured on an 18 mm round coverslip and placed in a 12-well plate inside a CO2 incubator at 35° C. for five days. The culture medium was replaced daily with fresh medium containing either 9 μM or 90 μM Isorhoifolin. On the fifth day of culture, the retinal tissues were fixed with a mixture of 0.1% glutaraldehyde solution and 4% paraformaldehyde at room temperature for one hour. Immunostaining was performed using primary antibodies against the axonal marker beta-III-tubulin (TUJ1) and DAPI to label neurons and cell nuclei, respectively. Images were acquired using a super-resolution upright confocal microscope (LSM-800, Carl Zeiss). ImageJ software was utilized for image analysis, wherein the tissue boundary was delineated to calculate the perimeter and the area of neuronal fibers outside the tissue boundary. The ratio of neuronal fiber area to tissue boundary perimeter was then calculated to determine the unit perimeter neuronal fiber length.

[5] = tested on: motor coordination after brain injury; assay: Controlled cortical impact (CCI) brain injury model, horizontal bar test; type: in vivo; settings: mice, 14 or 140 μg/kg intranasal at 0, 2, 4, 6, 8, 10, 12 Dpi, tested 1, 3, 6, 10, 13 Dpi, vs ddH2O and Sham
Procedure: Using the horizontal bar test, mice were placed on brass rods positioned at a height of 49 cm above the ground, with lengths of 38 cm and diameters of 2 mm, 4 mm, and 6 mm. Mice were required to grasp the brass rod with their forepaws, and their ability to move and coordinate was assessed by measuring the time spent on the brass rod and whether they reached the platform at the end of the rod. Evaluation criteria were as follows: 1 point for 1-5 seconds, 2 points for 5-10 seconds, 3 points for 10-20 seconds, 4 points for 20-30 seconds, and 5 points for over 30 seconds or reaching the platform. The experimental model, as depicted in FIG. 10, involved pre-training at −5, −3, and −1 days post injury (Dpi) (5, 3, and 1 day(s) before brain injury). At 0 Dpi, the controlled cortical impact model (CCI model) was used to induce brain injury in mice. Subsequently, at 0, 2, 4, 6, 8, 10, and 12 Dpi, mice were administered Isorhoifolin at doses of 14 or 140 μg/kg via intranasal delivery. Horizontal bar experiments were conducted at 1, 3, 6, 10, and 13 Dpi.

[6] = tested on: Neuro2a cells; assay: CellTiter-Glo cell viability assay (cytotoxicity); type: cell-based
From the text: Utilizing the CellTiter-Glo cell viability assay to assess the toxicity of Isorhoifolin on Neuro2a cells. CellTiter-Glo cell viability assay can detect the level of ATP in neuro2a cells after treatment of compounds to evaluate the survival rate.

Compound | neurite outgrowth after injury in ex vivo 3D brain slice culture [1] | neurite regeneration after injury (gap closure rate) [2] | neurite regeneration after injury (gap closure rate) ([3]; injured DIV8, 1 nM and 10 nM, standardized against 0.1% DMSO) | recovery of injured retinal neurons (unit perimeter neuronal fiber length) [4] | motor coordination recovery (horizontal bar test score) [5] | toxicity towards Neuro2a cells [6] | IC50 ([6]; Mus musculus, N2a, CellTiter-Glo, read-out: IC50 (cell viability, ATP level)) | neurite regrowth after injury (gap closure rate) ([3]; injured DIV8, various concentrations, TUJ1 staining)
Narirutin | promotes neurite outgrowth after injury in ex vivo 3D brain slice culture | effectively promotes dendritic outgrowth in cortical neurons | effectively promotes dendritic outgrowth in hippocampal neurons | – | – | – | – | –
C[C@@H]1O[C@@H](OC[C@H]2O[C@@H](Oc3cc(O)c4c(=O)cc(-c5ccc(O)cc5)oc4c3)[C@H](O)[C@@H](O)[C@@H]2O)[C@H](O)[C@H](O)[C@H]1O [Isorhoifolin] | promotes neurite outgrowth after injury in ex vivo 3D brain slice culture | – | – | significant recovery of injured retinal neurons | motor coordination was similar to that of the Sham (surgery control) group | low toxicity | ~11.6 mM | promotes neurite regrowth after injury in hippocampal neurons
